Data as given in patent US20240262815A1, “HETEROARYL DERIVATIVE, METHOD FOR PREPARING SAME, AND PHARMACEUTICAL COMPOSITION COMPRISING SAME AS ACTIVE INGREDIENT” (VORONOI INC., priority 2021, published 2024).

Experiments:
SK-BR-3 cancer cells = assay: Inhibitory activity against proliferation of SK-BR-3 cancer cells (CellTiter-Glo); format: cell-based; conditions: Homo sapiens, SK-BR-3, 120 h, ErbB2-overexpressing SK-BR-3 cells, 120 hours after treatment
In short: (§1)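 GI50 derived from % growth relative to control, measured by CellTiter-Glo luminescence after 120 h compound exposure (12 concentrations, 0.2 nM-5 μM final, n=3). BT-474 grown in RPMI-1640/20% FBS, SK-BR-3 in McCOY'S 5A/10% FBS; seeding 48 h pre-treatment.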

BT-474 cancer cells = assay: Inhibitory activity against proliferation of BT-474 cancer cells (CellTiter-Glo); format: cell-based; conditions: Homo sapiens, BT-474 ErbB2-overexpressing cancer cells, 120 hours after treatment
In short: as §1

Structure (SMILES) | GI50 (SK-BR-3 cancer cells) [nM] | GI50 (BT-474 cancer cells) [nM]
C=CC(=O)Nc1cc(Nc2cc(N3OCC[C@@H]3c3cccc(-c4cnc(C)c(F)c4)c3)ncn2)c(OC)cc1N1CCN(C)CC1 [Example 302, (R)-N-(5-((6-(3-(3-(5-fluoro-6-meth-ylpyridin-3-yl)-phenyl)isoxazol-idin-2-yl)pyrim-idin-4-yl)amino)-4-methoxy-2-(4-methylpiperazin-1-yl)phenyl)acryl-amide] | 50 to 500 | < 50
C=CC(=O)Nc1cc(Nc2cc(N3OCC[C@@H]3c3cccc(C#Cc4cccc(O)c4)c3)ncn2)c(OC)cc1N1CCN(C)CC1 [Example 315, (R)-N-(5-((6-(3-(3-((3-hydroxy-phenyl)ethynyl)-phenyl)isoxazol-idin-2-yl)pyrim-idin-4-yl)amino)-4-methoxy-2-(4-methylpiperazin-1-yl)phenyl)acryl-amide] | 500 to 5000 | 50 to 500
C=CC(=O)Nc1cc(Nc2cc(N3OCC[C@@H]3c3cccc(-c4ccccc4)c3)ncn2)c(OC)cc1N1CCO[C@H](C)C1 [Example 176, N-(5-((6-((R)-3-([1,1′-biphenyl]-3-yl)isoxazolidin-2-yl)pyrimidin-4-yl)-amino)-4-methoxy-2-((R)-2-methyl-morpholino)phen-yl)acrylamide] | < 50 | < 50
C=CC(=O)Nc1cc(Nc2cc(N3OCC[C@@H]3c3cccc(-c4cccs4)c3)ncn2)c(OC)cc1N1CCC(N2CCN(C3CC3)CC2)CC1 [Example compound 135, (R)-N-(2-(4-(4-cyclopropylpiperazin-1-yl)piperidin-1-yl)-4-methoxy-5-((6-(3-(3-(thiophen-2-yl)phenyl)isoxazolidin-2-yl)pyrimidin-4-yl)amino)phenyl)acrylamide] | < 50 | < 50
C=CC(=O)Nc1cc(Nc2cc(N3OCC[C@@H]3c3cccc(OCc4ccccc4)c3)ncn2)c(OC)cc1N(C)CCN(C)C [Example 227, (R)-N-(5-((6-(3-(3-(benzyloxy)-phenyl)isoxazol-idin-2-yl)pyrim-idin-4-yl)amino)-2-((2-(dimethyl-amino)ethyl)-(methyl)amino)-4-methoxyphen-yl)acrylamide] | < 50 | < 50
C=CC(=O)Nc1cc(Nc2cc(N3OCC[C@@H]3c3cccc(-c4cccc(F)c4)c3)ncn2)c(OC)cc1N1CC2(CN(C(=O)OC(C)(C)C)C2)C1 [Example 295, tert-butyl (R)-6-(2-acrylamido-4-((6-(3-(3′-fluoro-[1,1′-biphenyl]-3-yl)-isoxazolidin-2-yl)-pyrimidin-4-yl)-amino)-5-methoxy-phenyl)-2,6-diazaspiro[3.3]-heptane-2-carbox-ylate] | 50 to 500 | < 50
C=CC(=O)Nc1cc(Nc2cc(N3OCC[C@@H]3c3cccc(-c4cccc(F)c4F)c3)ncn2)c(OC)cc1N1CCN(C)CC1 [Example 284, (R)-N-(5-((6-(3-(2′,3′-difluoro-[1,1′-biphenyl]-3-yl)isoxazolidin-2-yl)pyrimidin-4-yl)-amino)-4-methoxy-2-(4-methylpiper-azin-1-yl)phenyl)-acrylamide] | < 50 | < 50
C=CC(=O)Nc1cc(Nc2cc(N3OCCC3c3cccc(-c4ccc(C)s4)c3)ncn2)c(OC)cc1N(C)CCN(C)C (centres unmarked) [Example 213, N-(2-((2-(dimeth-ylamino)ethyl)-(methyl)amino)-4-methoxy-5-((6-(3-(3-(5-methylthio-phen-2-yl)phenyl)-isoxazolidin-2-yl)-pyrimidin-4-yl)-amino)phenyl)-acrylamide] | 50 to 500 | 50 to 500
C=CC(=O)Nc1cc(Nc2cc(N3OCC[C@@H]3c3cccc(C#Cc4cccc(F)c4)c3)ncn2)c(OC)cc1N1CCN(C)CC1 [Example 314, (R)-N-(5-((6-(3-(3-((3-fluorophen-yl)ethynyl)phenyl)-isoxazolidin-2-yl)-pyrimidin-4-yl)-amino)-4-methoxy-2-(4-methylpiper-azin-1-yl)phenyl)-acrylamide] | 50 to 500 | 50 to 500
C=CC(=O)Nc1cc(Nc2cc(N3OCC[C@@H]3c3cccc(-c4ccccc4)c3)ncn2)c(OC)cc1N(C)CCN(C)C [Example 173, (R)-N-(5-((6-(3-([1,1′-biphenyl]-3-yl)isoxazolidin-2-yl)pyrimidin-4-yl)amino)-2-((2-(dimethylamino)-ethyl)(methyl)-amino)-4-methoxy-phenyl)acrylamide] | < 50 | < 50
C=CC(=O)Nc1cc(Nc2cc(N3OCC[C@@H]3c3cccc(-c4cccc(F)c4)c3)ncn2)c(OC)cc1N1CCN(S(C)(=O)=O)CC1 [Example 294, (R)-N-(5-((6-(3-(3′-fluoro-[1,1′-biphenyl]-3-yl)-isoxazolidin-2-yl)-pyrimidin-4-yl)-amino)-4-methoxy-2-(4-(methylsulfon-yl)piperazin-1-yl)-phenyl)acrylamide] | < 50 | < 50

Second part, the molecule after the results:

GI50 (SK-BR-3 cancer cells) [nM] | GI50 (BT-474 cancer cells) [nM] | Structure (SMILES)
< 50 | < 50 | C=CC(=O)Nc1cc(Nc2cc(N3OCCC3c3cccc(-c4cnc5ccnn5c4)c3)ncn2)c(OC)cc1N1CCN(C)CC1 (centres unmarked) [Example 201, N-(4-methoxy-2-(4-methylpiper-azin-1-yl)-5-((6-(3-(3-(pyrazolo-[1,5-a]pyrimidin-6-yl)phenyl)-isoxazolidin-2-yl)-pyrimidin-4-yl)-amino)phenyl)-acrylamide]
< 50 | < 50 | C=CC(=O)Nc1cc(Nc2cc(N3OCC[C@@H]3c3cccc(-c4cccc(F)c4)c3)ncn2)c(OC)cc1N1CCN(C2CC2)[C@@H](C)C1 [Example 320, N-(2-((S)-4-cyclo-propyl-3-methyl-piperazin-1-yl)-5-((6-((R)-3-(3′-fluoro-[1,1′-biphen-yl]-3-yl)isoxazol-idin-2-yl)pyrim-idin-4-yl)amino)-4-methoxyphen-yl)acrylamide]
< 50 | < 50 | C=CC(=O)Nc1cc(Nc2cc(N3OCC[C@@H]3c3cccc(OCc4cccc(F)c4)c3)ncn2)c(OC)cc1N(C)CCN(C)C [Example 228, (R)-N-(2-((2-(dimethylamino)-ethyl)(methyl)-amino)-5-((6-(3-(3-((3-fluorobenz-yl)oxy)phenyl)-isoxazolidin-2-yl)-pyrimidin-4-yl)-amino)-4-methoxy-phenyl)acrylamide]
< 50 | < 50 | C=CC(=O)Nc1cc(Nc2cc(N3OCC[C@@H]3c3cccc(C(=O)NC(C)C)c3)ncn2)c(OC)cc1N1CCC(N2CCN(C3CC3)CC2)CC1 [Example 253, (R)-3-(2-(6-((5-acrylamido-4-(4-(4-cyclopropyl-piperazin-1-yl)-piperidin-1-yl)-2-methoxyphenyl)-amino)pyrimidin-4-yl)isoxazolidin-3-yl)-N-isopropyl-benzamide]
< 50 | < 50 | C=CC(=O)Nc1cc(Nc2cc(N3OCC[C@@H]3c3cccc(-c4cccc(F)c4)c3)ncn2)c(OC)cc1N1C[C@H]2C[C@@H]1CO2 [Example 287, N-(2-((1R,4R)-2-oxa-5-azabicyclo-[2.2.1]heptan-5-yl)-5-((6-((R)-3-(3′-fluoro-[1,1′-biphenyl]-3-yl)-isoxazolidin-2-yl)-pyrimidin-4-yl)-amino)-4-meth-oxyphenyl)acryl-amide]
< 50 | < 50 | C=CC(=O)Nc1cc(Nc2cc(N3OCC[C@@H]3c3cc(F)cc(Oc4cccc(F)c4)c3)ncn2)c(OC)cc1N1CCC(N(C)C)CC1 [Example 224, (R)-N-(2-(4-(dimethylamino)-piperidin-1-yl)-5-((6-(3-(3-fluoro-5-(3-fluorophenoxy)-phenyl)isoxazol-idin-2-yl)pyrim-idin-4-yl)amino)-4-methoxyphen-yl)acrylamide]
< 50 | < 50 | C=CC(=O)Nc1cc(Nc2cc(N3OCC[C@@H]3c3cccc(-c4cnc(C)c(F)c4)c3)ncn2)c(OC)cc1N(C)CCN(C)C [Example 303, (R)-N-(2-((2-(dimethylamino)-ethyl)(methyl)-amino)-5-((6-(3-(3-(5-fluoro-6-methylpyridin-3-yl)phenyl)isoxazol-idin-2-yl)pyrim-idin-4-yl)amino)-4-methoxyphenyl)-acrylamide]
< 50 | < 50 | C=CC(=O)Nc1cc(Nc2cc(N3OCC[C@@H]3c3cccc(-c4cccc(F)c4)c3)ncn2)c(OC)cc1N1CCC(N2CCN(S(C)(=O)=O)CC2)CC1 [Example 324, (R)-N-(5-((6-(3-(3′-fluoro-[1,1′-biphenyl]-3-yl)-isoxazolidin-2-yl)-pyrimidin-4-yl)-amino)-4-methoxy-2-(4-(4-(methyl-sulfonyl)piperazin-1-yl)piperidin-1-yl)-phenyl)acrylamide]
< 50 | < 50 | C=CC(=O)Nc1cc(Nc2cc(N3OCC[C@@H]3c3cccc(-c4cccc(F)c4)c3)ncn2)c(OC)cc1N1C[C@H]2C[C@@H]1CN2C [Example 306, N-(5-((6-((R)-3-(3′-fluoro-[1,1′-biphenyl]-3-yl)-isoxazolidin-2-yl)-pyrimidin-4-yl)-amino)-4-meth-oxy-2-((1R,4R)-5-methyl-2,5-diaza-bicyclo[2.2.1]-heptan-2-yl)phen-yl)acrylamide]
< 50 | < 50 | C=CC(=O)Nc1cc(Nc2cc(N3OCCC3c3cccc(-c4cc(F)cc(F)c4)c3)ncn2)c(OC)cc1N(C)CCN(C)C (centres unmarked) [Example 265, N-(5-((6-(3-(3′,5′-difluoro-[1,1′-biphenyl]-3-yl)-isoxazolidin-2-yl)-pyrimidin-4-yl)-amino)-2-((2-(dimethylamino)-ethyl)(methyl)-amino)-4-meth-oxyphenyl)acryl-amide]
< 50 | < 50 | C=CC(=O)Nc1cc(Nc2cc(N3OCC[C@@H]3c3cccc(-c4cccc(F)c4)c3)ncn2)c(OC)cc1N1CCO[C@@H](C)C1 [Example 286, N-(5-((6-((R)-3-(3′-fluoro-[1,1′-biphenyl]-3-yl)-isoxazolidin-2-yl)-pyrimidin-4-yl)-amino)-4-methoxy-2-((S)-2-methyl-morpholino)phen-yl)acrylamide]
